From patent US5891917A, “Certain acrylonitrile-sulfonamide derivatives” (Sugen, Inc., priority 1997, dated 1999)

How the values were obtained:
IGF-1R = biological target: T1, IGF-1R (Homo sapiens, UniProt P08069); assay: Cellular IGF-1 Receptor ELISA; assay type: cell-based; conditions: 3T3/IGF-1R cells, 20 nM IGF-1
T1 construct: expressed in transfected cells; host or cells: 3T3/IGF-1R (mouse NIH 3T3 line overexpressing IGF-1R)
Method: Cellular IGF-1 Receptor ELISA (Version I)
(1). The cell line used in this assay is 3T3/IGF-1R, a cell line which overexpresses IGF-1 Receptor.
(2). 3T3/IGF-1R is grown in an incubator with 5% CO2 at 37° C. The growth media is DMEM+10% FBS (heat inactivated)+2mM L-Glutamine.
(3). For ELISA plate coating, the anti-IGF-1R antibody named 17-69 is used. Antibodies are purified by the Enzymology Lab, SUGEN, Inc.
(10). Insulin-like growth factor-1 from Promega (Cat# G5111).
(11). Polyclonal antiserum Anti-phosphotyrosine:
(1). The cells, grown in tissue culture dish (10 cm, Corning 25020-100) to 80-90% confluence, are harvested with Trypsin-EDTA (0.25%, 0.5 ml/D-100, GIBCO).
(2). Resuspend the cells in fresh DMEM +10% FBS+2 mM L-Glutamine, and transfer to 96-well tissue culture plate (Corning, 25806-96) at 20,000 cells/well (100 ul/well). Incubate for 1 day then replace medium to serum-free medium (90/ul) and incubate in 5% CO2 and 37° C. overnight.
(1). Coat the ELISA plate (Corning 25805-96) with Anti-IGF-1R Antibody at 0.5 ug/well in 100 ul PBS at least 2 hours. (2). Remove the coating solution, and replace with 100 ul Blocking Buffer, and shake for 30 minutes. Remove the blocking buffer and wash the plate just before adding lysate.
(1). The drugs are tested in serum-free condition.
(2). Dilute drug stock (in 100% DMSO) 1:10 with DMEM in 96-well poly-propylene plate, and transfer 10 ul/well of this solution to the cells to achieve final drug dilution 1:100, and final DMSO concentration of 1.0%. Incubate the cells in 5% CO2 at 37° C. for 2 hours.
(3). Prepare fresh cell lysis buffer (HNTG HNTG 2 ml EDTA 0.1 ml Na3VO4 0.1 ml Na4P2O7 0.1 ml H20 7.3 ml HNTG* 10 ml.
(4). After drug incubation for two hours, transfer 10 ul/well of 200nM IGF-1 Ligand in PBS to the cells (Final Conc=20 nM), and incubate at 5% CO2 at 37° C. for 10 minutes.
(5). Remove media and add 100 ul/well HNTG* and shake for 10 minutes. Look at cells under microscope to see if they are adequately lysed.
(6). Use a 12-channel pipette to scrape the cells from the plate, and homogenize the lysate by repeat aspiration and dispense. Transfer all the lysate to the antibody coated ELISA plate [V.2.(2)], and shake for 1 hour.
(7). Remove the lysate, wash the plate, transfer anti-pTyr (1:3,000 with TBST) 100 ul/well, and shake for 30 minutes.
(7). Remove anti-pTyr, wash the plate, transfer detection antibody (1:3,000 with TBST) 100 ul/well, and shake for 30 minutes.
(8). Remove detection antibody, wash the plate, and transfer fresh ABTS/H2O2 (1.2 ul H2O2 to 10 ml ABTS) 100 ul/well to the plate to start color development.
(9). Measure OD (410 nm) in Dynatec MR5000, which is connected to Ingres.

HER2 = biological target: T2, HER2 (Homo sapiens, UniProt P04626); assay: HER2-BT474 whole cell ELISA; assay type: cell-based; conditions: BT-474 cells
T2 construct: a human breast tumor cell line which expresses high levels of HER2 kinase; endogenous in cells; host or cells: BT-474 human breast tumor cells
Description: The following examples illustrate the ability of the exemplary compounds to inhibit receptor tyrosine kinases, such as HER2 and/or EGFR. The following target cells were used for cellular kinase assays: NIH3T3 clone C7 (Honegger et al., supra) engineered to over-express human EGF receptor; NIH3T3 cells engineered to over-express a chimeric receptor containing the EGFR extracellular domain and the HER2 intracellular kinase domain; the human mammary carcinoma line BT474 (ATCC HTB2) expressing HER2; and the human glioblastoma line U1242 that expresses PDGFR-beta. Growth assays were carried out using human mammary epithelial SKBR3 (ATCC HTB30) cells (SKBR3 cells over-express HER2), SKOV3 (ATCC HTB77) human ovarian cancer cell line (SKOV3 cells also over-express HER2), A431 cells (A431 cells over-express EGFR) MCF7 human breast carcinoma cells, MCF7 cells overexpressing the HER2 kinase (MCF7-HER2), NIH3T3 cells, and NIH3T3 cells overexpressing the HER2 kinase (3T3-HER2.
HER2-BT474 assays measuring whole cell HER2 activity was carried out as described below:
1. The cell line used in this assay is BT-474 (ATCC HBT20), a human breast tumor cell line which expresses high levels of HER2 kinase.
2. BT-474 is grown in an incubator with 5% CO2 at 37° C. The growth media is RPMI+10% FBS+GMS-G (Gibco supplement)+Glutamine.
(a) Grow BT474 cells in tissue culture dishes (10 cm, Corning 25020-100) to 80-90% confluence and collect using Trypsin-EDTA (0.25%, GIBCO).
(b) Resuspend the cells in fresh medium and transfer to 96-well tissue culture plates (Corning, 25806-96) at about 25,000-50,000 cells/well (100 μl/well). Incubate the cells in 5% CO2 at 37° C. overnight.
(a) Coat the ELISA plate (Corning 25805-96) with anti HER2 antibody at 0.5 μg/well in 150 μl PBS overnight at 4° C., and seal with parafilm. The antibody coated plates can be used up to 2 weeks, when stored at 4° C.
(b) On the day of use, remove the coating solution, replace with 200 μl of Blocking Buffer, shake the plate, and then remove the blocking buffer and wash the plate just before adding lysate.
(a) […] the drugs in serum-free condition. Before adding drugs, the old media is replaced with serum-free RPMI (90 μl/well)
(b) Dilute drug stock (in 100% DMSO) 1:10 with RPMI, and transfer 10 μl/well of this solution to the cells to achieve a final drug DMSO concentration at 1%. Incubate the cells in 5% CO2 at 37° C.
(c) Prepare fresh cell lysis buffer (HNTG*)
(d) After drug preincubation for two hours remove all the solution from the plate, transfer HNTG* 100 μl/well to the cells, and shake for 10 minutes.
(e) Use a 12-channel pipette to scrape the cells from the plate, and homogenize the lysate by repeat aspiration and dispensing. Transfer all the lysate to the ELISA plate and shake for 1 hour.
(f) Remove the lysate, wash the plate, add anti-pTyr (1:3,000 with TBST) 100 μl/well, and shake for 30 minutes.
(g) Remove anti-pTyr, wash the plate, add goat anti-rabbit IgG conjugated antibody (1:5,000 with TBST) 100 μl/well, and shake for 30 minutes.
(h) Remove anti-rabbit IgG antibody, wash the plate, and add fresh ABTS/H2 O2 (1.2 μl 30% H2 O2 to 10 ml ABTS) 100 μ/well to the plate to start color development, which usually takes 20 minutes.
(I) Measure OD 410 nm, Dynatec MR5000.

T2 sequence (P04626 23-1255): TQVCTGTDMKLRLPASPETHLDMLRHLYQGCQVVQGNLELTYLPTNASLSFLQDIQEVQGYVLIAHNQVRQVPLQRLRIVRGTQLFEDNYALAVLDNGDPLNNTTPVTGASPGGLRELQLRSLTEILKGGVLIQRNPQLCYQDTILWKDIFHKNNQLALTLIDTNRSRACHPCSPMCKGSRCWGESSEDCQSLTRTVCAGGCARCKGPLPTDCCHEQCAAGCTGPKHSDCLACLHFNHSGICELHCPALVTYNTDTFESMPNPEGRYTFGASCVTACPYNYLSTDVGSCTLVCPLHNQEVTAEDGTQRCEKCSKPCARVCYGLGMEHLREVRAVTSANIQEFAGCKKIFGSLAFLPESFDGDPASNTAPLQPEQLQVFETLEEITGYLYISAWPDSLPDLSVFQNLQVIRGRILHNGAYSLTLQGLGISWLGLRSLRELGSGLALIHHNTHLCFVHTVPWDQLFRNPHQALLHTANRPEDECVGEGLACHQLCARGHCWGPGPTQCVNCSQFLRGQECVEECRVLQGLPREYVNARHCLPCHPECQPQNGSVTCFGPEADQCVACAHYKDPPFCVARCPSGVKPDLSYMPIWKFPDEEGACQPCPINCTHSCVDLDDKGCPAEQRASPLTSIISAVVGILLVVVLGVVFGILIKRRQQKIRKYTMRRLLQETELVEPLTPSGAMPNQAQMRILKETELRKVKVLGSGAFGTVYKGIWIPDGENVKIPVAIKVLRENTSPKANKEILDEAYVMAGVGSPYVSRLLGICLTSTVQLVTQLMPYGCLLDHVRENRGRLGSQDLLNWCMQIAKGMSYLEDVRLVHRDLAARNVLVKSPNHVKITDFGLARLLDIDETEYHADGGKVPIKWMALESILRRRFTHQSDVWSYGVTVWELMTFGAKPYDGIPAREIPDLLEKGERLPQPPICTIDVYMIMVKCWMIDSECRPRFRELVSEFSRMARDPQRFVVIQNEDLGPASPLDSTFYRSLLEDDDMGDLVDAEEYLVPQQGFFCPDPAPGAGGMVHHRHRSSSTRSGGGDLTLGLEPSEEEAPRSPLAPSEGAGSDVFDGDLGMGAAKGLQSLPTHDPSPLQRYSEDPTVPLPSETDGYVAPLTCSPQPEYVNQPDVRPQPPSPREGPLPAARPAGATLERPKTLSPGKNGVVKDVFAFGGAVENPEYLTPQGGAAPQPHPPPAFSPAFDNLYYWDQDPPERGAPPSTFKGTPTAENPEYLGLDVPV
T1 sequence (P08069 741-1367 limits assumed): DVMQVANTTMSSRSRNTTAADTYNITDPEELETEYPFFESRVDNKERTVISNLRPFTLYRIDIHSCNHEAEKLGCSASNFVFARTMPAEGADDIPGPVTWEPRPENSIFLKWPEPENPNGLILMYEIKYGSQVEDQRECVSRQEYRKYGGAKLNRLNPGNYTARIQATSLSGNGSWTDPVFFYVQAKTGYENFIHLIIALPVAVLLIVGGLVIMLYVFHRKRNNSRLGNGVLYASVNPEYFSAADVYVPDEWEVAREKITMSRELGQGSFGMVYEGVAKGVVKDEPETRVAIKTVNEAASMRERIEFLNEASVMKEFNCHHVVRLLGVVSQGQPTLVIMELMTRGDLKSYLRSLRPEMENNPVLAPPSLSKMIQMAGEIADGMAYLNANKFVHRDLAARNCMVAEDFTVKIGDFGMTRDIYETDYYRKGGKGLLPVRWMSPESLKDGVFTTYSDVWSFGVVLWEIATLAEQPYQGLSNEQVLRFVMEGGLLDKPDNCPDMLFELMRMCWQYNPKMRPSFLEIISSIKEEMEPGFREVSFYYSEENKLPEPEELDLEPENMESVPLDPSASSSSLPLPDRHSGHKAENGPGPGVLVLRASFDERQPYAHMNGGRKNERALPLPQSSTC
T1 sequence (P08069 31-736 partner limits assumed): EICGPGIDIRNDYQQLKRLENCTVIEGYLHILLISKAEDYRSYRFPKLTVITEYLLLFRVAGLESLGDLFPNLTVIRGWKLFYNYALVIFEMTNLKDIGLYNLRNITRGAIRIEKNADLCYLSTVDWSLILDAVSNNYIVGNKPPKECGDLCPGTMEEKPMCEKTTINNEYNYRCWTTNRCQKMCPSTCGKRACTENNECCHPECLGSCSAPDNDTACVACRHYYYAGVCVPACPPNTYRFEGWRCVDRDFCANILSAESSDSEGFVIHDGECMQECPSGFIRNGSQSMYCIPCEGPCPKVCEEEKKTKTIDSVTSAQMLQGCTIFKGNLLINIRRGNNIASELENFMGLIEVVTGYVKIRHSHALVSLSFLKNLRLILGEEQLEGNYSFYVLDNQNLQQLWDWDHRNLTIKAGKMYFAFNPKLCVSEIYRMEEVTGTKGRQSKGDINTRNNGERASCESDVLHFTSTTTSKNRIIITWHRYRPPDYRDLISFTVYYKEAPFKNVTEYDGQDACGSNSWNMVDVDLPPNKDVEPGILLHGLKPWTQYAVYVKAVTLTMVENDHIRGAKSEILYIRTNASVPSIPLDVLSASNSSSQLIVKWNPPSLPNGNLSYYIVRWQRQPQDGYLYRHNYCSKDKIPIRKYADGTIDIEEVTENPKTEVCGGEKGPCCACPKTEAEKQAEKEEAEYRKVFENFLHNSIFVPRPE

| IC50 (IGF-1R) [µM] | IC50 (HER2) [µM] | Compound |
| --- | --- | --- |
| > 100 | 0.4 | CC(C)(C)c1cc(/C=C(\C#N)S(=O)(=O)c2ccc(F)cc2)cc(C(C)(C)C)c1O [Compound 740] |
| > 100 | 4.1 | Cc1cc(/C=C(\C#N)S(=O)(=O)Cc2cccc(C(F)(F)F)c2)cc(C)c1O [Compound 739] |
| 93.5 | 1 | CC(C)c1cc(/C=C(\C#N)S(=O)(=O)c2cccs2)cc(C(C)C)c1O [Compound 737] |
| > 100 | – | CC(C)c1cc(/C=C(\C#N)S(=O)(=O)c2ccccn2)cc(C(C)C)c1O [Compound 747] |
| > 100 | 4.5 | Cc1cc(/C=C(\C#N)S(=O)(=O)c2ccc(F)cc2)cc(C)c1O [Compound 744] |
| 19 | 0.8 | CC(C)c1cc(/C=C(\C#N)S(=O)(=O)Cc2cccc(C(F)(F)F)c2)cc(C(C)C)c1O [Compound 736] |
| 28.3 | – | CC(C)c1cc(/C=C(\C#N)S(=O)(=O)c2ccc(F)cc2)cc(C(C)C)c1O [Compound 741, (E)-3-(3,5-Diisopropyl-4-hydroxyphenyl)-2-(4-fluorophenylsulfonyl)acrylonitrile] |
| 93.9 | 1.8 | N#C/C(=C\c1ccc(O)cc1Cl)S(=O)(=O)NCCCc1ccccc1 [Compound 734] |
| > 100 | – | Cc1cc(/C=C(\C#N)S(=O)(=O)c2ccccc2)cc(C)c1O [Compound 748] |
| 69 | > 50 | CC(C)c1cc(/C=C(\C#N)S(=O)(=O)/C(C#N)=C/c2cc(C(C)C)c(O)c(C(C)C)c2)cc(C(C)C)c1O [Compound 745] |
| 29.2 | 0.3 | CC(C)c1cc(/C=C(\C#N)S(=O)(=O)c2ccccc2)cc(C(C)C)c1O [Compound 731] |
| > 100 | 0.3 | CC(C)(C)c1cc(/C=C(\C#N)S(=O)(=O)Cc2cccc(C(F)(F)F)c2)cc(C(C)(C)C)c1O [Compound 735] |
| > 100 | 0.2 | CC(C)(C)c1cc(/C=C(\C#N)S(=O)(=O)c2cccs2)cc(C(C)(C)C)c1O [Compound 742] |
| > 100 | 5.8 | N#C/C(=C\c1ccc(O)cc1Cl)S(=O)(=O)NCc1ccccc1 [Compound 733] |
| > 100 | 0.3 | CC(C)(C)c1cc(/C=C(\C#N)S(=O)(=O)c2ccsc2)cc(C(C)(C)C)c1O [Compound 746] |
| > 100 | 1.3 | CC(C)c1cc(/C=C(\C#N)S(=O)(=O)c2ccsc2)cc(C(C)C)c1O [Compound 738] |
| > 100 | 12.6 | N#C/C(=C\c1ccc(O)c(O)c1)S(=O)(=O)c1cccs1 [Compound 743, (E)-3-(3,4-Dihydroxyphenyl)-2-[(thien-2-yl)sulfonyl]acrylonitrile] |
| 11.8 | 1.9 | CC(C)c1cc(/C=C(\C#N)S(=O)(=O)NCc2ccccc2)cc(C(C)C)c1O [Compound 732] |
